Inhibition and IC50 data for 43 compounds are collected here from ChEMBL document CHEMBL4811250, “Discovery and Optimization of 2H-1λ2-Pyridin-2-one Inhibitors of Mutant Isocitrate Dehydrogenase 1 for the Treatment of Cancer” (J Med Chem, 2021).

By inhibition is commonly meant the drop in the measured response relative to a control, in per cent. As usually defined, the IC50 is the concentration needed to halve the response being measured.

Test [1] concerns Isocitrate dehydrogenase [NADP] cytoplasmic (Homo sapiens), O75874 [R132C]. Briefly: Inhibition of IDH1 R132C mutant (unknown origin) assessed as reduction in NADPH consumption using alpha-KG as substrate at 38 uM incubated for 5 mins by diaphorase/resazurin-coupled system relative to control. (In general: Alamar Blue is a resazurin reagent that responds to reducing activity.)
The target of test [2] is Isocitrate dehydrogenase [NADP] cytoplasmic (Homo sapiens, UniProt O75874, R132C). Kind of test: Inhibition of IDH1 R132C mutant (unknown origin) assessed as reduction in NADPH consumption using alpha-KG as substrate incubated for 5 mins by diaphorase/resazurin-coupled system.
Test [3] concerns Isocitrate dehydrogenase [NADP] cytoplasmic (Homo sapiens), O75874 [R132H]. Kind of test: Inhibition of IDH1 R132H mutant (unknown origin) assessed as reduction in NADPH consumption using alpha-KG as substrate at 38 uM incubated for 5 mins by diaphorase/resazurin-coupled system relative to control.
For test [4], the target named is Isocitrate dehydrogenase [NADP] cytoplasmic (Homo sapiens, UniProt O75874, R132H). Kind of test: Inhibition of IDH1 R132H mutant (unknown origin) assessed as reduction in NADPH consumption using alpha-KG as substrate incubated for 5 mins by diaphorase/resazurin-coupled system.
Sequence of Isocitrate dehydrogenase [NADP] cytoplasmic (Homo sapiens, UniProt O75874, R132H) (O75874 2-414 R132H limits assumed): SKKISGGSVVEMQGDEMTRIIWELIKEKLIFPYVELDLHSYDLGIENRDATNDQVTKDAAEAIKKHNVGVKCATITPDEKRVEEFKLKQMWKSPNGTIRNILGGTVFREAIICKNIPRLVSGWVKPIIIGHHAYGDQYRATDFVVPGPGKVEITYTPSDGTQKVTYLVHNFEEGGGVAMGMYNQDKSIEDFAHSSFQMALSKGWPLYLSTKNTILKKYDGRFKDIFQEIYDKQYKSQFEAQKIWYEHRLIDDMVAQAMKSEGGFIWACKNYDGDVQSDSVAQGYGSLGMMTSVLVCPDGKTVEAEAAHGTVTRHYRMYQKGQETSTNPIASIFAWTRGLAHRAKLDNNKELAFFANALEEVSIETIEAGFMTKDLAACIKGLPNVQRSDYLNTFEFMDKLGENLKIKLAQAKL

Sequence of Isocitrate dehydrogenase [NADP] cytoplasmic (Homo sapiens, UniProt O75874, R132C) (O75874 2-414 R132C limits assumed): as the sequence (O75874 2-414 R132H limits assumed) above, with H131C counted along it
Sequence of Isocitrate dehydrogenase [NADP] cytoplasmic (Homo sapiens), O75874 [R132H] (O75874 whole entry R132H): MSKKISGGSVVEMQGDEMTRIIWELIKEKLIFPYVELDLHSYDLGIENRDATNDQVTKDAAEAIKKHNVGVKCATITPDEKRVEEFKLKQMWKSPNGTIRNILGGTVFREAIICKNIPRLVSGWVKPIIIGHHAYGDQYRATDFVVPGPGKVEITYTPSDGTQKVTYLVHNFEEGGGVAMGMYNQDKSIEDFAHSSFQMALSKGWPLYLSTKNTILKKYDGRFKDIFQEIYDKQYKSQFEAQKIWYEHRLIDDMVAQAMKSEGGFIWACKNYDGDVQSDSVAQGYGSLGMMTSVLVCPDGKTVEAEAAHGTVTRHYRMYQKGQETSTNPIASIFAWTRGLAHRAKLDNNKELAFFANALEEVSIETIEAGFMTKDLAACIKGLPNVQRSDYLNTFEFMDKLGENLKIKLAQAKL
Sequence of Isocitrate dehydrogenase [NADP] cytoplasmic (Homo sapiens), O75874 [R132C] (O75874 whole entry R132C): as the sequence (O75874 whole entry R132H) above, with H132C counted along it

`CCc1cccc(CC)c1-n1c(C)c(C(=O)NCCCNC)cc(-c2nc(-c3ccc(Cl)cc3)cs2)c1=O`: the figures for the inhibition in test [1] and in test [3] were 95% and 104%, respectively. Further, the values for the IC50 in test [2] and in test [4] were 910 nM and 1000 nM, respectively.

For the compound `CCc1cccc(CC)c1-n1c(C)c(C(=O)N2CCNCC2)cc(-c2nc(-c3ccc(Cl)cc3)cs2)c1=O`, the inhibition stood at 93% in test [1] and 103% in test [3]. Moreover, the results for the IC50 in test [2] and in test [4] were 1500 nM and 210 nM, respectively.

Consider `COc1ccc(OC)c(-n2c3c(cc(-n4cc(-c5ccccc5)cn4)c2=O)C(=O)CC(C)(C)C3)c1`, for which, in test [2], the concentration for half-maximal inhibition (IC50) is > 38000 nM. Further, the inhibition in test [3] was determined as 31%.

For the compound `COc1ccc(OC)c(-n2c3c(cc(-c4cn(-c5ccc(Cl)cc5)cn4)c2=O)C(=O)CC(C)(C)C3)c1`, the IC50 in test [2] was > 38000 nM. Further, the inhibition in test [3] came out at 41%.

For `CCc1cccc(CC)c1-n1c(C)c(C(=O)N2CCN(C)CC2)cc(-c2nc(-c3ccc(Cl)cc3)cs2)c1=O`, the inhibition is 86% in test [1] and 88% in test [3]. Besides, the values for the IC50 in test [2] and in test [4] were 1200 nM and 2900 nM, respectively.

Regarding `COc1ncccc1-n1c2c(cc(-c3nc(-c4ccc(Cl)cc4)cs3)c1=O)C(=O)CC(C)(C)C2`, the inhibition in test [1] worked out at 80%; in test [3], 97%. The values for the IC50 in test [2] and in test [4] were 1300 nM and 1000 nM, respectively.

For the compound `CCc1cccc(CC)c1-n1c(CC2CCOC2)c(C(=O)N2CCNCC2)cc(-c2nc(-c3ccc(Cl)cc3)cs2)c1=O` (stereo unspecified), the inhibition in test [1] stood at 91%; in test [3], 105%. Further, the IC50 in test [2] is 130 nM; in test [4], 75 nM.

For the compound `CCc1cccc(CC)c1-n1c(C)c(C(=O)N(C)C)cc(-c2nc(-c3ccc(Cl)cc3)cs2)c1=O`, the inhibition in test [1] is 86%; in test [3], 98%. The IC50 in test [2] amounted to 2000 nM; in test [4], 1200 nM.

As for `CCc1cccc(CC)c1-n1c(C)c(C(=O)NCC(=O)O)cc(-c2nc(-c3ccc(Cl)cc3)cs2)c1=O`, the inhibition in test [1] was 87%; in test [3], 106%. Further, the figures for the IC50 in test [2] and in test [4] were 11000 nM and 1200 nM, respectively.

In the case of `COc1ccc(OC)c(-n2c3c(cc(-c4nc(-c5ccc(Cl)cc5)cs4)c2=O)C(=O)CC(C)(C)C3)c1`, the values for the inhibition in test [1] and in test [3] were 85% and 84%, respectively. For the same compound, the IC50 in test [2] is 1000 nM; in test [4], 1600 nM.

Take `CCc1cccc(CC)c1-n1c(C)c(C(=O)NCCOC)cc(-c2nc(-c3ccc(Cl)cc3)cs2)c1=O`: the inhibition in test [1] is 102%; in test [3] it was 92%. Besides, the IC50 stood at 730 nM in test [2] and 2100 nM in test [4].

As for `CC1(C)CC(=O)c2cc(-c3nc(-c4ccc(Cl)cc4)cs3)c(=O)n(-c3ccccc3OC(F)(F)F)c2C1`, the inhibition in test [1] is 78%; in test [3], 98%. The results for the IC50 in test [2] and in test [4] were 280 nM and 570 nM, respectively.

As to `CCc1cccc(CC)c1-n1c(C)c(C(=O)NCCO)cc(-c2nc(-c3ccc(Cl)cc3)cs2)c1=O`, the inhibition was found to be 96% in test [1] and 104% in test [3]. Further, the IC50 is 2000 nM in test [2] and 420 nM in test [4].

For the compound `CCOc1ccc(OCC)c(-n2c3c(cc(-c4nc(-c5ccc(Cl)cc5)cs4)c2=O)C(=O)CC(C)(C)C3)c1`, the inhibition in test [1] was 75%; in test [3], 85%. Further, the IC50 in test [2] was 64 nM; in test [4], 160 nM.

As to `CCc1cccc(CC)c1-n1c(C)c(C(=O)NCC(C)C)cc(-c2nc(-c3ccc(Cl)cc3)cs2)c1=O`, in test [1], the inhibition came out at 56%. The figures for the IC50 in test [2] and in test [4] were 810 nM and > 38000 nM, respectively.

As for `CCc1cccc(CC)c1-n1c2c(cc(-c3nc(-c4ccc(Cl)cc4)cs3)c1=O)C(=O)CC(C)(C)C2`, the inhibition in test [1] was 82%; in test [3], 89%. The IC50 in test [2] was 240 nM; in test [4], 690 nM.

Consider `COc1cccc(OC)c1-n1c2c(cc(-c3nc(-c4ccc(Cl)cc4)cs3)c1=O)C(=O)CC(C)(C)C2`, for which the inhibition in test [1] was 75%; in test [3] it was 87%. Further, the values for the IC50 in test [2] and in test [4] were 1600 nM and 2400 nM, respectively.

With `COc1ccc(OC)c(-n2c3c(cc(-c4cccc(-c5ccc(Cl)cc5)c4)c2=O)C(=O)CC(C)(C)C3)c1`, the IC50 in test [2] and in test [4] was > 38000 nM each time.

For the compound `COc1ccc(OC)c(-n2c3c(cc(C(=O)NCc4ccc(Cl)cc4)c2=O)C(=O)CC(C)(C)C3)c1`, the 50% inhibitory concentration (IC50) in test [2] is > 38000 nM. The inhibition in test [3] worked out at 35%.

In the case of `COc1ccc(OC)c(-n2c3c(cc(-c4ccc(-c5ccccc5)cc4)c2=O)C(=O)CC(C)(C)C3)c1`, the IC50 in test [2] and in test [4] was > 38000 nM in each case.

On to `CCCC1CN(C(=O)c2cc(-c3nc(-c4ccc(Cl)cc4)cs3)c(=O)n(-c3c(CC)cccc3CC)c2C=C(C)C)CCN1` (stereo unspecified), for which the values for the IC50 in test [2] and in test [4] were 82 nM and 130 nM, respectively.

On to `CC1(C)CC(=O)c2cc(-c3nc(-c4ccc(Cl)cc4)cs3)c(=O)n(C3CCCCC3)c2C1`, for which the IC50 in test [2] and in test [4] was > 38000 nM each time.

With `COc1ccc(OC)c(-n2c3c(cc(-c4nc(-c5ccc(Cl)cc5)c[nH]4)c2=O)C(=O)CC(C)(C)C3)c1`, the results for the inhibition in test [1] and in test [3] were 77% and 82%, respectively. Further, the IC50 stood at 2500 nM in test [2] and 2200 nM in test [4].

For `CCc1cccc(CC)c1-n1c(CCC(F)(F)F)c(C(=O)N2CCNCC2)cc(-c2nc(-c3ccc(Cl)cc3)cs2)c1=O`, the inhibition is 82% in test [1] and 101% in test [3]. In addition, the IC50 in test [2] was 600 nM; in test [4], 240 nM.

With `CCc1cccc(CC)c1-n1c(C=C(C)C)c(C(=O)N2CCNC(CO)C2)cc(-c2nc(-c3ccc(Cl)cc3)cs2)c1=O` (stereo unspecified), the figures for the IC50 in test [2] and in test [4] were 60 nM and 49 nM, respectively.

Regarding `CC1(C)CC(=O)c2cc(-c3nc(-c4ccc(Cl)cc4)cs3)c(=O)n(-c3ccccc3C(=O)O)c2C1`, the inhibition in test [1] came out at 105%; in test [3], 96%. The IC50 in test [2] worked out at 11000 nM; in test [4], 4600 nM.

With `CCc1cccc(CC)c1-n1c(C=C(C)C)c(C(=O)N2CCNC(CC)C2)cc(-c2nc(-c3ccc(Cl)cc3)cs2)c1=O` (stereo unspecified), the IC50 in test [2] was found to be 72 nM; in test [4] it was 100 nM.

Take `COC(=O)c1ccsc1-n1c2c(cc(-c3nc(-c4ccc(Cl)cc4)cs3)c1=O)C(=O)CC(C)(C)C2`: the inhibition in test [1] came out at 83%; in test [3], 94%. The IC50 in test [2] and in test [4] was 470 nM each time.

With `CCc1cccc(CC)c1-n1c(C)c(C(=O)NCCNC)cc(-c2nc(-c3ccc(Cl)cc3)cs2)c1=O`, the inhibition was determined as 96% in test [1] and 101% in test [3]. For the same compound, the IC50 is 320 nM in test [2] and 870 nM in test [4].

For `CCc1cccc(CC)c1-n1c(C)c(C(=O)NCC(N)=O)cc(-c2nc(-c3ccc(Cl)cc3)cs2)c1=O`, the inhibition in test [1] was 77%; in test [3], 105%. Further, the IC50 in test [2] is 3800 nM; in test [4], 1600 nM.

`CCOc1ccccc1-n1c2c(cc(-c3nc(-c4ccc(Cl)cc4)cs3)c1=O)C(=O)CC(C)(C)C2`: the inhibition in test [1] was found to be 81%; in test [3] it was 88%. The IC50 in test [2] was found to be 410 nM.

For the compound `COc1ccc(OC)c(-n2c(C)ccc(-c3nc(-c4ccc(Cl)cc4)cs3)c2=O)c1`, the IC50 in test [2] and in test [4] was > 38000 nM throughout.

Take `CCc1cccc(CC)c1-n1c(C)c(C(=O)OC)cc(-c2nc(-c3ccc(Cl)cc3)cs2)c1=O`: the IC50 in test [2] and in test [4] was > 38000 nM throughout.

Regarding `CCOC(=O)c1cc(-c2nc(-c3ccc(Cl)cc3)cs2)c(=O)n(-c2c(CC)cccc2CC)c1-c1ccccc1`, the IC50 in test [2] and in test [4] was > 38000 nM each time.

With `COc1ccc(OC)c(-n2c3c(cc(-c4ncc(-c5ccc(Cl)cc5)s4)c2=O)C(=O)CC(C)(C)C3)c1`, the IC50 in test [2] and in test [4] was > 38000 nM each time.

In the case of `CCc1cccc(C)c1-n1c(C=C(C)C)c(C(=O)N2CCNCC2)cc(-c2nc(-c3ccc(Cl)cc3)cs2)c1=O`, the IC50 in test [2] is 2200 nM; in test [4], 270 nM.

With `COc1cccc(C(=O)O)c1-n1c2c(cc(-c3nc(-c4ccc(Cl)cc4)cs3)c1=O)C(=O)CC(C)(C)C2`, the figures for the inhibition in test [1] and in test [3] were 108% and 102%, respectively. Also, the IC50 in test [2] came out at 2000 nM; in test [4], 910 nM.

For the compound `CCc1ccccc1-n1c(C=C(C)C)c(C(=O)N2CCNCC2)cc(-c2nc(-c3ccc(Cl)cc3)cs2)c1=O`, the IC50 in test [2] was 160 nM; in test [4], 56 nM.

As for `CCc1ccc(C)cc1-n1c(C=C(C)C)c(C(=O)N2CCNCC2)cc(-c2nc(-c3ccc(Cl)cc3)cs2)c1=O`, the IC50 in test [2] was determined as 110 nM; in test [4], 44 nM.

In the case of `COc1ccc(OC)c(-n2c3c(cc(-c4nc5ccc(Cl)cc5s4)c2=O)C(=O)CC(C)(C)C3)c1`, the inhibition in test [1] is 94%; in test [3], 50%. Moreover, the IC50 in test [2] stood at 2500 nM.

With `CCc1cccc(CC)c1-n1c(C=C(C)C)c(C(=O)N2CC3(CNC3)C2)cc(-c2nc(-c3ccc(Cl)cc3)cs2)c1=O`, the values for the IC50 in test [2] and in test [4] were 64 nM and 240 nM, respectively.

On to `COc1ccc(OC)c(-n2cccc(-c3nc(-c4ccc(Cl)cc4)cs3)c2=O)c1`, for which the IC50 in test [2] and in test [4] was > 38000 nM throughout.

With `COc1ccc(-n2c3c(cc(-c4nc(-c5ccc(Cl)cc5)cs4)c2=O)C(=O)CC(C)(C)C3)c(OC)c1`, the IC50 in test [2] and in test [4] was > 38000 nM throughout.
